Data on four compounds can be found in publication PMC3914206.

Holding throughout (type): binding
Common to all, as to settings: Compound Concentration 10 µM

Experiment [1] deals with T1, panel of 442 kinases (Homo sapiens, UniProt O15075).
T1 construct: purchased KINOMEscan
The source says: (§1) We assessed the selectivity of members of this scaffold using the KINOMEscan methodology across a near comprehensive panel of 442 kinases [[18,27]].

The target in experiment [2] is T2, panel of 442 kinases (Homo sapiens, UniProt Q00536).
T2 construct: purchased KINOMEscan
T2 sequence (Q00536 whole entry): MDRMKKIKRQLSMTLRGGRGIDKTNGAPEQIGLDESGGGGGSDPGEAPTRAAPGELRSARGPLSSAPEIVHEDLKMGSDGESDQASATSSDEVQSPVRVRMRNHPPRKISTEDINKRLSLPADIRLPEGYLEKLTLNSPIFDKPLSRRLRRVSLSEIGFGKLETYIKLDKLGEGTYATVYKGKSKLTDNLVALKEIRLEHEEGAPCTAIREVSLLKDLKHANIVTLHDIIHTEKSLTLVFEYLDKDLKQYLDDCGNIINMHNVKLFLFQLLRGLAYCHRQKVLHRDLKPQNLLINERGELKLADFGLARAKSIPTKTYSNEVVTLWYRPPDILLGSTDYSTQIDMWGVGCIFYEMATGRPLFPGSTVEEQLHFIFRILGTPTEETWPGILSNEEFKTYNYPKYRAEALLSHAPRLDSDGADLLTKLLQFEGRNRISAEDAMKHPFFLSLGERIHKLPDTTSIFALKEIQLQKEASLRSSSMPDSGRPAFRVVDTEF
Text: as §1

In experiment [3] the target is T3, panel of 442 kinases (Homo sapiens, UniProt P42336, C420R).
T3 construct: purchased KINOMEscan
T3 sequence (P42336 whole entry C420R): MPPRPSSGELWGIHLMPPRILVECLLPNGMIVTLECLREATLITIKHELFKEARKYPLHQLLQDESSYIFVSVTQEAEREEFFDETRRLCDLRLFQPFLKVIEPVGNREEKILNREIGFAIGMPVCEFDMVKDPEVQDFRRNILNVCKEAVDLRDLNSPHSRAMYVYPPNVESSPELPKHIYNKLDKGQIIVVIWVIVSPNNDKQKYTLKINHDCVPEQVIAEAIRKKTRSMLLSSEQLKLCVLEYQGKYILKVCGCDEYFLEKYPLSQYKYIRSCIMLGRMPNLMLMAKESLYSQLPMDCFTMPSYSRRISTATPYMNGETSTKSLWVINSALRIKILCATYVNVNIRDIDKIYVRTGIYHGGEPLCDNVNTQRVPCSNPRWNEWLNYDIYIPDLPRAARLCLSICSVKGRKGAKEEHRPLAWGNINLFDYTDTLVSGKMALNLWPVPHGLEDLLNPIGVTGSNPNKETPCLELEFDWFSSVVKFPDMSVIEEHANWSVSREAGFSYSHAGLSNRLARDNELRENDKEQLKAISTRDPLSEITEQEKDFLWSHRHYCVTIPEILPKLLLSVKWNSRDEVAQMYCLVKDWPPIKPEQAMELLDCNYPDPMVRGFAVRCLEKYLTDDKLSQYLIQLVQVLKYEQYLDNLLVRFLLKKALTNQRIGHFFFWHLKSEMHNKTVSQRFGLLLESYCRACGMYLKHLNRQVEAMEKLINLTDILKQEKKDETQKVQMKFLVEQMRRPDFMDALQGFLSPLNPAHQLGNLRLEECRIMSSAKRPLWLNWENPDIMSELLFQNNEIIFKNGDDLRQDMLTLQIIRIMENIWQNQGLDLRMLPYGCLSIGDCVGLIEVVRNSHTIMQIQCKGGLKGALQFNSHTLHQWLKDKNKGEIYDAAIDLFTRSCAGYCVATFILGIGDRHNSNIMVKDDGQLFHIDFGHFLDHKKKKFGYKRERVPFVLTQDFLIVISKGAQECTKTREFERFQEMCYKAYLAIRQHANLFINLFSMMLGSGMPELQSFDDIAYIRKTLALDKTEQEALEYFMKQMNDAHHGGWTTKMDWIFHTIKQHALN
Text: as §1

Experiment [4] concerns the target T4, panel of 442 kinases (Homo sapiens, UniProt P51957).
T4 construct: purchased KINOMEscan
Text: as §1

T4 sequence (P51957 whole entry): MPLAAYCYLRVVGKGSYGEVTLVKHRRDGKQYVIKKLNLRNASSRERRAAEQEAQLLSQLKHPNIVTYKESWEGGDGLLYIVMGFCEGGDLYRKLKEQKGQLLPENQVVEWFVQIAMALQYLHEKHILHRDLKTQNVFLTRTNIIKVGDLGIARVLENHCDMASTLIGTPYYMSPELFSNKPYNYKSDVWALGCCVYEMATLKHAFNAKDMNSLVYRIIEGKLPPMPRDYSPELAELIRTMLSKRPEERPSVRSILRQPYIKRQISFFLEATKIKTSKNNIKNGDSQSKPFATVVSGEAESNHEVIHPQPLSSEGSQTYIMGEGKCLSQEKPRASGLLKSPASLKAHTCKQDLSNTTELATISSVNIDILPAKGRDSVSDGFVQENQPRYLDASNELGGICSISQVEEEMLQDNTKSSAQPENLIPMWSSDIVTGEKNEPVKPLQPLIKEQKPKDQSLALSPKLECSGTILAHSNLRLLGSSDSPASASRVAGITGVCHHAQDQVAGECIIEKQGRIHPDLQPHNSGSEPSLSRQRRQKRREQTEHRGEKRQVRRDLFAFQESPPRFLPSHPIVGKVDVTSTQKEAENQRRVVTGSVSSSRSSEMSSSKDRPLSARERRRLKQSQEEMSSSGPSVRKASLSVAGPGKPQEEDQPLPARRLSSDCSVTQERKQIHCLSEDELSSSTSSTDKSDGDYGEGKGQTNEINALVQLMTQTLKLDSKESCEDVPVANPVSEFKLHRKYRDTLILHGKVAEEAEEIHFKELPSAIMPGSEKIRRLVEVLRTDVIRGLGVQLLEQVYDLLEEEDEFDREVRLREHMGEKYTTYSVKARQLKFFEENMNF
T1 sequence (O15075 whole entry): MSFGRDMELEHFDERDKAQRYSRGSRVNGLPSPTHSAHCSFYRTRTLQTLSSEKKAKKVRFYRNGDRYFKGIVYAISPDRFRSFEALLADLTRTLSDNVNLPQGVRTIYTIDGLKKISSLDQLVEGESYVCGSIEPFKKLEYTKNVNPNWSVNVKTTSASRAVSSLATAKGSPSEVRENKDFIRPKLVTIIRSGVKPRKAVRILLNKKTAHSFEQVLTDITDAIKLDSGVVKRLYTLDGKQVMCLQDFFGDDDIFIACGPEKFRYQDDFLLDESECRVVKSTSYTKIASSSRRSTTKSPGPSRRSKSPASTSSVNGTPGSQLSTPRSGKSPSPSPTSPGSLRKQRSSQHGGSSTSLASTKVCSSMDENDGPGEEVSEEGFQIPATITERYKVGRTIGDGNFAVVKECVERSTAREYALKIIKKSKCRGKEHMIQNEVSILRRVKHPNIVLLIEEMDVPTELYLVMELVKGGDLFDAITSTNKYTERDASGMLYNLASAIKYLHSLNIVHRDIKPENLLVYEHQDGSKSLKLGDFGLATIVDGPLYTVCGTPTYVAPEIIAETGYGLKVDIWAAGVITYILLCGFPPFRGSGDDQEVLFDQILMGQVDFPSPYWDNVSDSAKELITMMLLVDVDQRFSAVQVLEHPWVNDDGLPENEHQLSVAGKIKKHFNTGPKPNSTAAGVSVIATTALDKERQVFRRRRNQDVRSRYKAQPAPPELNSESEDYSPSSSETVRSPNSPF

As for `COc1cc(C(=O)N2CCC(N3CCN(C)CC3)CC2)ccc1Nc1ncc2c(n1)N(C1CCCC1)c1ccccc1C(=O)N2C` [Compound 25, 11-cyclopentyl-2-((2-methoxy-4-(4-(4-methylpiperazin-1-yl)piperidine-1-carbonyl)phenyl)amino)-5-methyl-5H-benzo[e]pyrimido[5,4-b][1,4]diazepin-6(11H)-one], the “KINOMEscan: DCAMKL1” value in experiment [1] is reported as 8.4. The “KINOMEscan: PCTK1” value in experiment [2] is reported as 100. Further, the “KINOMEscan: PIK3CA(C420R)” value in experiment [3] is recorded as 100. The “KINOMEscan: NEK4” value in experiment [4] is given as 97.
Consider `COc1cc(C(=O)N2CCC(N3CCN(C)CC3)CC2)ccc1Nc1ncc2c(n1)N1CCc3cccc(c31)C(=O)N2C` [Compound 24], for which, in experiment [1], the “KINOMEscan: DCAMKL1” value was found to be 6.4.
`COc1cc(C(=O)N2CCC(N3CCN(C)CC3)CC2)ccc1Nc1ncc2c(n1)N(C)c1ccccc1C(=O)N2C` [15 (LRRK2-IN-1)]: in experiment [1], the “KINOMEscan: DCAMKL1” value was 4.2. The “KINOMEscan: PCTK1” value in experiment [2] is recorded as 96. Besides, in experiment [3], the “KINOMEscan: PIK3CA(C420R)” value is given as 89. For the same compound, in experiment [4], the “KINOMEscan: NEK4” value worked out at 95.
Take `CCOc1cc(C(=O)N2CCC(N3CCN(C)CC3)CC2)ccc1Nc1ncc2c(n1)N(C1CCCC1)c1ccccc1C(=O)N2C` [Compound 26]: in experiment [2], the “KINOMEscan: PCTK1” value is on record as 100. Further, the “KINOMEscan: PIK3CA(C420R)” value in experiment [3] is listed as 99. Besides, in experiment [4], the “KINOMEscan: NEK4” value was 89.
